Structures are written as SMILES. Numbered stars: 1 amine (or outer) side, 2 acyl side, 3 side chain; on linkers, the order of the positions; unused ones are H or OH. Bridge positions count the residues as written; N and C are the ends. Square brackets hold non-standard residues; d marks the D form. Peptide text beside a SMILES is read from it. Trp(7-Me) = Cc1cccc2c(C[C@H](N)C(=O)O)c[nH]c12; Abu(4-yl) = O=C([C@H](CC[*:3])N[*:1])[*:2]; 2Nal = N[C@@H](Cc1ccc2ccccc2c1)C(=O)O; AEF = NCCOc1ccc(C[C@H](N)C(=O)O)cc1; αMeF = C[C@](N)(Cc1ccccc1)C(=O)O; Pen = CC(C)(S)[C@H](N)C(=O)O; αMeK = C[C@](N)(CCCCN)C(=O)O; Sar = CNCC(=O)O

What all share (assay type): in vitro ADME
Series [1] in a line: Stability in cynomolgus monkey fecal homogenate. As to conditions: 20% fecal homogenate (supernatant), pH 6.8, 20% cynomolgus monkey fecal homogenate, anaerobic, 37° C., read-out: t½: Monkey Feces anaerobic (converted). As for the experimental part: (§1) Centrifuged the homogenate at 2800×g for 15 min. The supernatant is taken out and used for incubations. […] The final test compound concentration was 20 μM.

Series [2] is described as follows: Stability in simulated intestinal fluid (SIF). As to conditions: simulated intestinal fluid with pancreatin, pH 6.8, 37° C., matrix is 100 fold dilution of standard SIF concentration; for SIF t½: 20 μM; for half-life at 20 μM: read-out: SIF t½ (converted).
The nature of series [3]: Stability in rat plasma. As to conditions: both sexes, SD rat plasma, EDTA, 37° C., read-out: t½: Rat Plasma EDTA (converted).
Series [4] can be described thus: Stability in human fecal homogenate. As to conditions: 20% fecal homogenate (supernatant), pH 6.8, 20% human fecal homogenate, anaerobic, 37° C., read-out: t½: Human Feces anaerobic (converted). As for the experimental part: as §1

Turning to `CC(=O)NCCCC[C@H](NC(=O)[C@](C)(CCCCN)NC(=O)[C@H](Cc1ccc2ccccc2c1)NC(=O)[C@H](Cc1ccc(OCCN)cc1)NC(=O)[C@H]1NC(=O)[C@H](CCC(N)=O)NC(=O)[C@H](Cc2c[nH]c3ccc(C#N)cc23)NC(=O)[C@H]([C@@H](C)O)NC(=O)[C@H](CC(N)=O)NC(=O)[C@@H](NC(C)=O)C(C)(C)SSC1(C)C)C(=O)N[C@@H](CC(N)=O)C(=O)N[C@H](CCCCN)C(N)=O` [compound 296], the half-life at 20 μM in series [1], in series [3] and in series [4] was over 24 h each time. Moreover, the “SIF t½” value in series [2] is 24 h.
In the case of `COc1cccc2c(C[C@@H]3NC(=O)[C@H]([C@@H](C)O)NC(=O)[C@H](CC(N)=O)NC(=O)[C@@H](NC(C)=O)C(C)(C)SSC(C)(C)[C@@H](C(=O)N[C@@H](Cc4ccc(OCCN)cc4)C(=O)N[C@@H](Cc4ccc5ccccc5c4)C(=O)N[C@@](C)(CCCCN)C(=O)N[C@@H](CCCCNC(C)=O)C(=O)N[C@@H](CC(N)=O)C(=O)N[C@H](CCCCN)C(N)=O)NC(=O)[C@H](CCC(N)=O)NC3=O)c[nH]c12` [compound 297], the half-life at 20 μM in series [1], in series [3] and in series [4] was over 24 h throughout. For the same compound, in series [2], the “SIF t½” value is 24 h.
`COc1cccc2c(C[C@@H]3NC(=O)[C@H]([C@@H](C)O)NC(=O)[C@H](CC(N)=O)NC(=O)[C@@H](NC(C)=O)C(C)(C)SSC(C)(C)[C@@H](C(=O)N[C@@H](Cc4ccc(OCCN)cc4)C(=O)N[C@@H](Cc4ccc5ccccc5c4)C(=O)N[C@@](C)(CCCCN)C(=O)N[C@@H](CCCCNC(C)=O)C(=O)N[C@@H](CC(N)=O)C(=O)N[C@H](CCCCN)C(N)=O)NC(=O)[C@H](CCCCNC(C)=O)NC3=O)c[nH]c12` [compound 299]: the half-life at 20 μM in series [1], in series [3] and in series [4] was over 24 h throughout. The “SIF t½” value in series [2] was 24 h.
With `CC(=O)NCCCC[C@H](NC(=O)[C@](C)(CCCCN)NC(=O)[C@H](Cc1ccc2ccccc2c1)NC(=O)[C@H](Cc1ccc(OCCN)cc1)NC(=O)[C@H]1NC(=O)[C@H](CCCCNC(=O)[C@H](C)N)NC(=O)[C@H](Cc2c[nH]c3c(C)cccc23)NC(=O)[C@H]([C@@H](C)O)NC(=O)[C@H](CC(N)=O)NC(=O)[C@@H](NC(C)=O)C(C)(C)SSC1(C)C)C(=O)N[C@@H](CC(N)=O)C(=O)N[C@H](CC(C)C)C(N)=O` [compound 314], the half-life at 20 μM in series [1], in series [3] and in series [4] was over 24 h in each case. Moreover, the “SIF t½” value in series [2] was 24 h.
In the case of `CC(=O)NCCCC[C@H](NC(=O)[C@](C)(CCCCN)NC(=O)[C@H](Cc1ccc2ccccc2c1)NC(=O)[C@H](Cc1ccc(OCCN)cc1)NC(=O)[C@H]1NC(=O)[C@H](CCCCNC(=O)CC(C)C)NC(=O)[C@H](Cc2c[nH]c3c(C)cccc23)NC(=O)[C@H]([C@@H](C)O)NC(=O)[C@H](CC(N)=O)NC(=O)[C@@H](NC(C)=O)C(C)(C)SSC1(C)C)C(=O)N[C@@H](CC(N)=O)C(=O)N[C@H](CC(C)C)C(N)=O` [compound 315], the half-life at 20 μM in series [1], in series [3] and in series [4] was over 24 h in each case. Further, the “SIF t½” value in series [2] was 24 h.
In the case of `CC(=O)NCCCC[C@H](NC(=O)[C@](C)(CCCCN)NC(=O)[C@H](Cc1ccc2ccccc2c1)NC(=O)[C@H](Cc1ccc(OCCN)cc1)NC(=O)[C@H]1NC(=O)[C@H](CCCCNC(=O)CN)NC(=O)[C@H](Cc2c[nH]c3c(C)cccc23)NC(=O)[C@H]([C@@H](C)O)NC(=O)[C@H](CC(N)=O)NC(=O)[C@@H](NC(C)=O)C(C)(C)SSC1(C)C)C(=O)N[C@@H](CC(N)=O)C(=O)N[C@H](CC(C)C)C(N)=O` [compound 320], the half-life at 20 μM in series [1] was 15 h; in series [2] it was 21 h; in series [3], over 24 h; in series [4], over 24 h.
For `CC(=O)NCCCC[C@H](NC(=O)[C@](C)(CCCCN)NC(=O)[C@H](Cc1ccc2ccccc2c1)NC(=O)[C@H](Cc1ccc(OCCN)cc1)NC(=O)[C@H]1NC(=O)[C@H](CCCCNC(=O)CCN)NC(=O)[C@H](Cc2c[nH]c3c(C)cccc23)NC(=O)[C@H]([C@@H](C)O)NC(=O)[C@H](CC(N)=O)NC(=O)[C@@H](NC(C)=O)C(C)(C)SSC1(C)C)C(=O)N[C@@H](CC(N)=O)C(=O)N[C@H](CC(C)C)C(N)=O` [compound 321], the half-life at 20 μM in series [1], in series [3] and in series [4] was over 24 h throughout. Also, the “SIF t½” value in series [2] is 24 h.
Take `CC(=O)NCCCC[C@@H]1NC(=O)[C@H](Cc2c[nH]c3c(C)cccc23)NC(=O)[C@H]([C@@H](C)O)NC(=O)[C@H](CCC(N)=O)NC(=O)[C@@H](NC(=O)[C@@H](CCCNC(=N)N)NC(C)=O)CCSC[C@@H](C(=O)N[C@@H](Cc2ccc(OCCN)cc2)C(=O)N[C@@H](Cc2ccc3ccccc3c2)C(=O)N[C@@](C)(CCCCN)C(=O)N[C@@H](CCCCNC(C)=O)C(=O)N[C@@H](CC(N)=O)C(=O)N[C@H](CCCCN)C(=O)N(C)CC(N)=O)NC1=O` [compound 323] (Ac-[dR][Abu(4-yl)]QT[Trp(7-Me)]K(Ac)C[AEF][2Nal][αMeK]K(Ac)N[dK][Sar]-NH2; thioether 2-7): the half-life at 20 μM in series [1] was 13 h; in series [2], 20 h; in series [3] it was over 24 h; in series [4] it was over 24 h.
Consider `CC(=O)NCCCC[C@@H]1NC(=O)[C@H](Cc2c[nH]c3c(C)cccc23)NC(=O)[C@H]([C@@H](C)O)NC(=O)[C@H](CCC(N)=O)NC(=O)[C@@H](NC(=O)[C@@H](CCCNC(=N)N)NC(C)=O)CCSC[C@@H](C(=O)N[C@@H](Cc2ccc(OCCN)cc2)C(=O)N[C@@H](Cc2ccc3ccccc3c2)C(=O)N[C@@](C)(CCCCN)C(=O)N[C@@H](CCCCNC(C)=O)C(=O)N[C@@H](CC(N)=O)C(=O)N[C@H](CCCCN)C(N)=O)NC1=O` [compound 324] (Ac-[dR][Abu(4-yl)]QT[Trp(7-Me)]K(Ac)C[AEF][2Nal][αMeK]K(Ac)N[dK]-NH2; thioether 2-7), for which the half-life at 20 μM in series [1] was 13 h; in series [2] it was 13 h; in series [3], over 24 h; in series [4], over 24 h.
For the compound `CC(=O)NCCCC[C@@H]1NC(=O)[C@H](Cc2c[nH]c3c(C)cccc23)NC(=O)[C@H]([C@@H](C)O)NC(=O)[C@H](CCC(N)=O)NC(=O)[C@@H](NC(=O)[C@@H](CCCNC(=N)N)NC(C)=O)CCSC[C@@H](C(=O)N[C@@H](Cc2ccc(OCCN)cc2)C(=O)N[C@@H](Cc2ccc3ccccc3c2)C(=O)N[C@@](C)(CCCCN)C(=O)N[C@@H](CCCCNC(C)=O)C(=O)N[C@@H](CC(N)=O)C(=O)N[C@@](C)(Cc2ccccc2)C(N)=O)NC1=O` [compound 327] (Ac-[dR][Abu(4-yl)]QT[Trp(7-Me)]K(Ac)C[AEF][2Nal][αMeK]K(Ac)N[αMeF]-NH2; thioether 2-7), the figures for the half-life at 20 μM in series [1], in series [3] and in series [4] were 24 h, over 24 h and over 24 h, respectively. The “SIF t½” value in series [2] was 24 h.
Take `CC(=O)NCCCC[C@@H]1NC(=O)[C@H](Cc2c[nH]c3c(C)cccc23)NC(=O)[C@H]([C@@H](C)O)NC(=O)[C@H](C)NC(=O)[C@@H](NC(C)=O)C(C)(C)SSC(C)(C)[C@@H](C(=O)N[C@@H](Cc2ccc(OCCN)cc2)C(=O)N[C@@H](Cc2ccc3ccccc3c2)C(=O)N[C@@](C)(CCCCN)C(=O)N[C@@H](CCCCNC(C)=O)C(=O)N[C@@H](CC(N)=O)C(=O)N[C@H](CC(C)C)C(N)=O)NC1=O` [compound 328] (Ac-[Pen]AT[Trp(7-Me)]K(Ac)[Pen][AEF][2Nal][αMeK]K(Ac)N[dL]-NH2; disulfide 1-6): the half-life at 20 μM in series [1] was over 24 h; in series [2] it was 23 h; in series [3] it was over 24 h; in series [4] it was over 24 h.
Consider `CC(=O)NCCCC[C@@H]1NC(=O)[C@H](Cc2c[nH]c3c(C)cccc23)NC(=O)[C@H]([C@@H](C)O)NC(=O)CNC(=O)[C@@H](NC(C)=O)C(C)(C)SSC(C)(C)[C@@H](C(=O)N[C@@H](Cc2ccc(OCCN)cc2)C(=O)N[C@@H](Cc2ccc3ccccc3c2)C(=O)N[C@@](C)(CCCCN)C(=O)N[C@@H](CCCCNC(C)=O)C(=O)N[C@@H](CC(N)=O)C(=O)N[C@H](CC(C)C)C(N)=O)NC1=O` [compound 329] (Ac-[Pen]GT[Trp(7-Me)]K(Ac)[Pen][AEF][2Nal][αMeK]K(Ac)N[dL]-NH2; disulfide 1-6), for which the half-life at 20 μM in series [1] was over 24 h; in series [2], 12 h; in series [3], over 24 h; in series [4], over 24 h.
Consider `CC(=O)NCCCC[C@@H]1NC(=O)[C@H](Cc2c[nH]c3c(C)cccc23)NC(=O)[C@H]([C@@H](C)O)NC(=O)[C@@H](CC(N)=O)NC(=O)[C@@H](NC(C)=O)C(C)(C)SSC(C)(C)[C@@H](C(=O)N[C@@H](Cc2ccc(OCCN)cc2)C(=O)N[C@@H](Cc2ccc3ccccc3c2)C(=O)N[C@@](C)(CCCCN)C(=O)N[C@@H](CCCCNC(C)=O)C(=O)N[C@@H](CC(N)=O)C(=O)N[C@H](CC(C)C)C(N)=O)NC1=O` [compound 338], for which the half-life at 20 μM in series [1], in series [3] and in series [4] was over 24 h in each case.

Source of the values: patent US11041000B2, “Peptide inhibitors of interleukin-23 receptor and their use to treat inflammatory diseases” (priority 2019, dated 2021).
